What was measured:
HSP70 = HSP70 induction in hippocampus of 3×Tg AD mice; format: in vivo; conditions: i.p., 24 h
Description: FIGS. 43A, 43B, and 43C. 8-10 mo 3×Tg mice were administered 75 mg/kg (FIG. 43A) or the indicated dose of the HSP90 inhibitor PU-HZ151 (FIG. 43B) and the PD marker, HSP70, was measured in hippocampus, an afflicted brain region in this model of AD, at 24 h post-administration. HSP70 is induced when HSP90 is inhibited and its induction is an indicator that therapeutic levels of the HSP90 inhibitor were delivered to the brain region of interest. FIG. 43C: Levels of the HSP90 inhibitor in the indicated brain regions and plasma were determined by LC-MS/MS after the administration of 50 mg/kg PU-HZ151. Hsp90 inhibitor levels at different times after single ip injection are shown in micromolar units. Brain exposure was also measured as the area under the curve (AUC).
Pharmacodynamic analyses. For protein analysis, selected brain region (hippocampus) was homogenized in SDS lysis buffer (50 mM Tris pH 7.4, 2% SDS) and subjected to Western blot analysis. Levels of proteins were be analyzed by immunoblotting with anti-Hsp70 and Hsp90 antibodies.

in vivo = conditions: 3×Tg AD, mouse
oncogenic HSP90 [1] = test: PU-H71-FITC2 binding to primary leukemia blasts relative to normal lymphocytes, flow cytometry; format: cell-based, human; conditions: blast crisis CML cells
Description: Cell viability was analyzed by flow cytometry (BD Biosciences). […] Cells were washed and then analyzed by flow cytometry. Normal mouse IgG2a-PE was used as isotype control.
Analysis is performed using FlowJo software.

oncogenic HSP90 [2] = test: PU-FITC binding to EpCAM+ circulating tumor cells in PBMCs; format: cell-based, human; conditions: CTCs, patient with HER2+ metastatic breast cancer
Description: FIGS. 20A and 20B. PU-H71-FITC2 accumulation in EpCAM+ Circulating Tumor Cells: PBMC's isolated from whole blood were pre-treated with PU-FITC or controls (PU-FITC9, DMSO, 1 μM/2×10^6 cells/ml, 4 hrs). Cells were then stained with CD45, CD14 and EpCAM antibodies. FIG. 20A Cells are gated to exclude dead cells. Viable cells are then gated to determine EpCAM+vs CD45+ cells. Monocytes are excluded from the analysis by gating the CD45+ cells further as FSC vs. CD14. FIG. 20B Histogram plots showing the PU-FITC Median florescence intensity (MFI) of CD45+CD14− cells (blue) and EpCAM+ cells (Red). The drug accumulation in EpCAM+ cells is calculated as the ratio of MFI EpCAM+/MFI CD45+CD14− (circulating tumor cells/leukocytes) after subtracting the values of the DMSO and PU-FITC9 controls (used to control for non-specific and background binding).
Measure PU-FITC binding to EpCAM+ circulating tumor cells in PBMC's: All experimental blood sampling procedures were performed under the Institutional Review Board-approved protocols at Memorial Sloan Kettering Cancer Center. […] PBMC's are isolated on ficoll gradients, cells are counted and viability determined by trypan blue dye exclusion assay. PBMC's are spun down and re-suspended to 2×10^6 cells/ml. […] Values are calculated as a ratio of the MFI of Tumor (EpCAM+CD45−CD14−): MFI of EpCAM-CD45+CD14− cells. […]

MV4-11 and MOLM-13 cells = test: fluorescent PU-H71 derivatives in AML cell lines: flow cytometry, viability
oncogenic HSP90 [3] = test: PU-H71-FITC2 binding to pancreatic and breast cancer cell lines relative to HL-60 versus viability

CC(C)(C)CNCCn1c(Sc2cc3c(cc2I)OCO3)nc2c(N)ncnc21 [PU-HZ151]
lowest administered dose with significant induction of HSP70 (HSP70): 10 mg/kg | Kp (in vivo): 2.5

CC(C)N(CCCn1c(Sc2cc3c(cc2I)OCO3)nc2c(N)ncnc21)C(=S)Nc1ccc(-c2c3ccc(=O)cc-3oc3cc(O)ccc23)c(C(=O)O)c1 [PU-H71-FITC2]
binding relative to normal lymphocytes (oncogenic HSP90 [1]): over 4 fold | fold more bound by tumor cells than leukocytes (CD45+CD14− cells) (oncogenic HSP90 [2]): around 84 fold | permeation of live cells and target binding (MV4-11 and MOLM-13 cells; 1 μM): permeate live cells and bind to the target | effect on viability of leukemia cells (MV4-11 and MOLM-13 cells; MOLM-13, 1 μM, 24 h): reduce the viability of leukemia cells | binding to HL-60 leukemia cells (oncogenic HSP90 [3]): low to no binding

Source: patent publication US12616759B2, “Uses of labeled HSP90 inhibitors” (Sloan-Kettering Institute for Cancer Research, priority 2011, dated 2026)
